Reference: ChEMBL document CHEMBL4477252, “Optimization of microtubule affinity regulating kinase (MARK) inhibitors with improved physical properties” (Bioorg Med Chem Lett, 2016)
Values after ≈ are worked out from the molar mass of the structure shown.

How the values were obtained:
[1] = biological target: MDR1 (ABCB1, P-glycoprotein) (Rattus norvegicus, UniProt P43245); experiment: Substrate activity at rat MDR1 expressed in LLC-PK1 cells assessed as efflux ratio of permeability across basolateral to apical over apical to basolateral side at 5 uM; format: ADME, cell-based
Sequence of MDR1 (ABCB1, P-glycoprotein) (P43245 whole entry): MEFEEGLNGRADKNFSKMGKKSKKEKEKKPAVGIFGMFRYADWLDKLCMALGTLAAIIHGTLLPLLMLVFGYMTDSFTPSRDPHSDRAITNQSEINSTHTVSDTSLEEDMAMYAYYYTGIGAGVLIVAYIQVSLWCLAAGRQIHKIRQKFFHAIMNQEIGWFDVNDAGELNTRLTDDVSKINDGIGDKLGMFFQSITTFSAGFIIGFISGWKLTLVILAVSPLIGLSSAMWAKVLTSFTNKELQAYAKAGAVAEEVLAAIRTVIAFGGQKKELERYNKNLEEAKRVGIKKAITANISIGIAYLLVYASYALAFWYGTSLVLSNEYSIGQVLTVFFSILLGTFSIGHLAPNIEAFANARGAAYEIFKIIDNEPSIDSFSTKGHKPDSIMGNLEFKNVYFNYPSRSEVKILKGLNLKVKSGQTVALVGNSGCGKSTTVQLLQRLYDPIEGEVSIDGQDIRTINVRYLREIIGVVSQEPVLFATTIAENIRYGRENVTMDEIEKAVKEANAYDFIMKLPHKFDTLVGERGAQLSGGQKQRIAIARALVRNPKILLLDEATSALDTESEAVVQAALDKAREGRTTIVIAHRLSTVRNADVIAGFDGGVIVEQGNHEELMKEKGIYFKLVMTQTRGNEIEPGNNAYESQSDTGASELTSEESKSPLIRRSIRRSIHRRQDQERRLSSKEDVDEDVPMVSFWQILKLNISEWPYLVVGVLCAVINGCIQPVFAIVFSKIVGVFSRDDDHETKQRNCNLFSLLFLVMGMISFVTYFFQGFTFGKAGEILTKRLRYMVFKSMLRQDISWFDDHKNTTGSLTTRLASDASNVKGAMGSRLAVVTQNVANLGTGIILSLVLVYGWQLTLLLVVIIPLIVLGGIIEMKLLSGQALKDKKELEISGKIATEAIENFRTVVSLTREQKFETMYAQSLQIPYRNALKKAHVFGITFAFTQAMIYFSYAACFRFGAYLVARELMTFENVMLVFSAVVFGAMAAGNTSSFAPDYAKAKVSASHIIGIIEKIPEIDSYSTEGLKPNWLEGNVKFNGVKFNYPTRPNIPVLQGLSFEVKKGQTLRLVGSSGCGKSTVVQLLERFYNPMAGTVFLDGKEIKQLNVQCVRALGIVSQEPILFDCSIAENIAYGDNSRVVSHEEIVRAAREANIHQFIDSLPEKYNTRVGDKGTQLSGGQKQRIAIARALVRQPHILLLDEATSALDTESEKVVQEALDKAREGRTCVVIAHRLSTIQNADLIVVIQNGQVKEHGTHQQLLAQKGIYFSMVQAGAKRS

[2] = Solubility of the compound at pH 7; format: physicochemical; conditions: buffer
[3] = biological target: RAC-beta serine/threonine-protein kinase (Homo sapiens, UniProt P31751); experiment: Inhibition of full-length recombinant human His-tagged AKT2 expressed in baculovirus expression system by Z'-LYTE assay
Sequence of RAC-beta serine/threonine-protein kinase (P31751 whole entry, the tested form may be a part): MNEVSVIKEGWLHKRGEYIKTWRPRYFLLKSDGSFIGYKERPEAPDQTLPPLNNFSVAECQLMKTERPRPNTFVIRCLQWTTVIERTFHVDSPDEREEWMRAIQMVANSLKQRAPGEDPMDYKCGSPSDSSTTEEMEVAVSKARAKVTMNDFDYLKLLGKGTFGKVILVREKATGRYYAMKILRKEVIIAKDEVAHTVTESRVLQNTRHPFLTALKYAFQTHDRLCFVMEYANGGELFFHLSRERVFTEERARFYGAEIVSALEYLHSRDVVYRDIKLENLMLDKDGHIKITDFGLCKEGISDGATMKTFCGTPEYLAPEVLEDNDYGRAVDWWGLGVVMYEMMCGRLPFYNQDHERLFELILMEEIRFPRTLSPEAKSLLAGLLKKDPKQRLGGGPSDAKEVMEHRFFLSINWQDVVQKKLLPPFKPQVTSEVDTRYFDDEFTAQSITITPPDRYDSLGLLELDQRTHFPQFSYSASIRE

[4] = biological target: Dual specificity protein kinase CLK2 (Homo sapiens, UniProt P49760); experiment: Inhibition of recombinant human GST-tagged CLK2 catalytic domain expressed in baculovirus expression system by Z'-LYTE assay
Sequence of Dual specificity protein kinase CLK2 (P49760 whole entry, the tested form may be a part): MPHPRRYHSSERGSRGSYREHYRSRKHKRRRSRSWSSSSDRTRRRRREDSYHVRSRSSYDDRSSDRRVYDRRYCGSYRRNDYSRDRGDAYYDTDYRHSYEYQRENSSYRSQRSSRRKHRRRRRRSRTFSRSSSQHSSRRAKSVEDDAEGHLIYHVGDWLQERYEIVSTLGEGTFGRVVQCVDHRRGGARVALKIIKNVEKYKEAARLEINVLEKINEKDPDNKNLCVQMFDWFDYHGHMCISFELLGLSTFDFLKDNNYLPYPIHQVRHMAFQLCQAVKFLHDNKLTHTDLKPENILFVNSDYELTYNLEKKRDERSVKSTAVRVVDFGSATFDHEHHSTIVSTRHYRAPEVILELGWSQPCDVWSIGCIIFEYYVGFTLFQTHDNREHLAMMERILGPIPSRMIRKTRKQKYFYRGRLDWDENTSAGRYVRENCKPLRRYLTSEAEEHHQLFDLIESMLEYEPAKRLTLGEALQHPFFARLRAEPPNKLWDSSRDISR

[5] = biological target: Glycogen synthase kinase-3 alpha (Homo sapiens, UniProt P49840); experiment: Inhibition of full-length human GST-tagged GSK3A expressed in baculovirus expression system by Z'-LYTE assay
Sequence of Glycogen synthase kinase-3 alpha (P49840 whole entry, the tested form may be a part): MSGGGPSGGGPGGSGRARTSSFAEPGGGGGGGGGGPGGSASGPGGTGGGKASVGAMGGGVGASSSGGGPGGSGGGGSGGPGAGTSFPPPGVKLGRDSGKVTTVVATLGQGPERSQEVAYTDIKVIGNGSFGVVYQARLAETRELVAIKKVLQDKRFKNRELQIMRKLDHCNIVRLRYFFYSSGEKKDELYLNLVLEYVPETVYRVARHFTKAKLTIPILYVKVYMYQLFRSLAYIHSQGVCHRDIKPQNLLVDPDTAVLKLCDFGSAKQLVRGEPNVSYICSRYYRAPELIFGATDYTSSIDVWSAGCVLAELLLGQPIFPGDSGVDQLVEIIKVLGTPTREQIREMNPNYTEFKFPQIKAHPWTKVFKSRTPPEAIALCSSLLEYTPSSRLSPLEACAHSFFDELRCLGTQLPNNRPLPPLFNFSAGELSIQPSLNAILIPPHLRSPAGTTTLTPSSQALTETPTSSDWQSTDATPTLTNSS

[6] = biological target: T1, Tyrosine-protein kinase JAK3 (Homo sapiens, UniProt P52333); experiment: Inhibition of recombinant human GST-tagged JAK3 catalytic domain expressed in baculovirus expression system by Z'-LYTE assay
T1 sequence (P52333 whole entry): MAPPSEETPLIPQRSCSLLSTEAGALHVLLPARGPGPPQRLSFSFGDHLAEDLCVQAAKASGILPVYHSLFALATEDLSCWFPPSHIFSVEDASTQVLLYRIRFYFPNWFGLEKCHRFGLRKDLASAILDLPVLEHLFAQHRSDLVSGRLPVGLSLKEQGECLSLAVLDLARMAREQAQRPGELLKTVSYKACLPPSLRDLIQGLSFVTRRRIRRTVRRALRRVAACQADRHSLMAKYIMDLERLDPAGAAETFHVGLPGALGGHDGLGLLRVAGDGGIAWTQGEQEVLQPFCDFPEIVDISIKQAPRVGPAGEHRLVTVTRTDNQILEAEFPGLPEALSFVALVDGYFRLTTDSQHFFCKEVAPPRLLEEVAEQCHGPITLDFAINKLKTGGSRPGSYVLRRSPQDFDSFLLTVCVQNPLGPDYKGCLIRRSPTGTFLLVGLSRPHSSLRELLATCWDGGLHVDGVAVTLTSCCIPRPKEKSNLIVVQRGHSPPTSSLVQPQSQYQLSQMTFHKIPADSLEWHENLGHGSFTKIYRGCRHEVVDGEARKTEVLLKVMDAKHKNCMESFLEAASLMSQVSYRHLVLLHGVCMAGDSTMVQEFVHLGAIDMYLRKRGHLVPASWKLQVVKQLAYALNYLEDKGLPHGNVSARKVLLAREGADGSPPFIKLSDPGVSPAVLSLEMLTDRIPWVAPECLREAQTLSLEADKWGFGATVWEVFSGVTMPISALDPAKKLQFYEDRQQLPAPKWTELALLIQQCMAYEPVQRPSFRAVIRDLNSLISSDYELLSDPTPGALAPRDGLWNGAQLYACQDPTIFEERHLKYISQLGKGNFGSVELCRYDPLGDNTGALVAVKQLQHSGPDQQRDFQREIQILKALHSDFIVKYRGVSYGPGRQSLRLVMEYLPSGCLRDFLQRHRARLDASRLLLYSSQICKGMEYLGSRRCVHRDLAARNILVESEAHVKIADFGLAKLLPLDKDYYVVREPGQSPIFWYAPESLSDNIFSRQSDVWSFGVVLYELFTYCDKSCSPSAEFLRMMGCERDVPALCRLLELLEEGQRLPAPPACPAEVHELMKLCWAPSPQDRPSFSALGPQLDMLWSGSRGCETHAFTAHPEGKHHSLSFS

[7] = biological target: Mast/stem cell growth factor receptor Kit (Homo sapiens, UniProt P10721); experiment: Inhibition of recombinant human His-tagged cytoplasmic KIT expressed in baculovirus expression system by Z'-LYTE assay
Sequence of Mast/stem cell growth factor receptor Kit (P10721 whole entry): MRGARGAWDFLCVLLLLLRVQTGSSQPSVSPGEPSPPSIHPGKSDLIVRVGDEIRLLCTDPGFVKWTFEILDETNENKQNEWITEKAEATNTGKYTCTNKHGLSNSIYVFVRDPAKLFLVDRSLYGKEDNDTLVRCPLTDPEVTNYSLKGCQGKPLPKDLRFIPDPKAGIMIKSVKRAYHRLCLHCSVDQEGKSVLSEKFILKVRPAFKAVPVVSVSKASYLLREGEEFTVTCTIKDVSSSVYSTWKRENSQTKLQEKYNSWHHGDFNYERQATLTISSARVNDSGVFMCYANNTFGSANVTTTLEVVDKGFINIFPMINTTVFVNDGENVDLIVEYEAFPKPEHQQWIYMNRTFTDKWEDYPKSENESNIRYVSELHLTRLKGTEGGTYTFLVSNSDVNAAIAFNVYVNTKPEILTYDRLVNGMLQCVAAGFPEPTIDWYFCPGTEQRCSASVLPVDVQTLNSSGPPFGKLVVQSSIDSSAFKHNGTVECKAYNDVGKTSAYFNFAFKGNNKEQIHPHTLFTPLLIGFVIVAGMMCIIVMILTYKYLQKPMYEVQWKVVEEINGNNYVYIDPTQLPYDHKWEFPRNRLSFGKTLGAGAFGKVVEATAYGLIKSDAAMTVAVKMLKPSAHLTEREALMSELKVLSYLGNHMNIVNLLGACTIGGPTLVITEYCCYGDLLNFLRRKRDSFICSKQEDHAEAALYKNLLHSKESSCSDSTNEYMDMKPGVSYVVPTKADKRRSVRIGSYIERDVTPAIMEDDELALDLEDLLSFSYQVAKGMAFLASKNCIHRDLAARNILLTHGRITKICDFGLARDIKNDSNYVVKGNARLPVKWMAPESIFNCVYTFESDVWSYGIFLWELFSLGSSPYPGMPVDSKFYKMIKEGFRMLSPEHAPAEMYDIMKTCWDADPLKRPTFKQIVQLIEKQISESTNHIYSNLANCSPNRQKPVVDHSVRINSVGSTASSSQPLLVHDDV

[8] = biological target: T2, Protein kinase C iota type (Homo sapiens, UniProt P41743); experiment: Inhibition of full-length recombinant human His-tagged PRKCI expressed in baculovirus expression system by Z'-LYTE assay
T2 sequence (P41743 whole entry): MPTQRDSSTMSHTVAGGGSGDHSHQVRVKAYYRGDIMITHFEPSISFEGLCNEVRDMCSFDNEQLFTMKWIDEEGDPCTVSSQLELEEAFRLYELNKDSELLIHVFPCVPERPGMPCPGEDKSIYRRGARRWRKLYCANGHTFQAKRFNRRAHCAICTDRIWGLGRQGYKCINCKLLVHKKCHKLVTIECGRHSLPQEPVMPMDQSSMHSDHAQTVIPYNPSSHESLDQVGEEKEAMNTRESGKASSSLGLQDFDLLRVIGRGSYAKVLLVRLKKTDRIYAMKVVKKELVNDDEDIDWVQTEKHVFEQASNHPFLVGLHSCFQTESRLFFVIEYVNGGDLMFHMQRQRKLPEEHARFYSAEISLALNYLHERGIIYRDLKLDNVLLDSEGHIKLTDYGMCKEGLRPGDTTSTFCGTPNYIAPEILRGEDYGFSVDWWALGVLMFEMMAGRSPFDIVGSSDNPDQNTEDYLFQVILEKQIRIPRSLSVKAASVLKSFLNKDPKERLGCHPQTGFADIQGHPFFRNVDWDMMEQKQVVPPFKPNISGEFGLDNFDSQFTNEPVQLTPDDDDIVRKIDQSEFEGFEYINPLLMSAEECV

[9] = biological target: Rho-associated protein kinase 2 (Homo sapiens, UniProt O75116); experiment: Inhibition of recombinant human N-terminal GST-tagged ROCK2 (1 to 552 residues) catalytic domain expressed in baculovirus expression system by Z'-LYTE assay
Sequence of Rho-associated protein kinase 2 (O75116 whole entry, the tested form may be a part): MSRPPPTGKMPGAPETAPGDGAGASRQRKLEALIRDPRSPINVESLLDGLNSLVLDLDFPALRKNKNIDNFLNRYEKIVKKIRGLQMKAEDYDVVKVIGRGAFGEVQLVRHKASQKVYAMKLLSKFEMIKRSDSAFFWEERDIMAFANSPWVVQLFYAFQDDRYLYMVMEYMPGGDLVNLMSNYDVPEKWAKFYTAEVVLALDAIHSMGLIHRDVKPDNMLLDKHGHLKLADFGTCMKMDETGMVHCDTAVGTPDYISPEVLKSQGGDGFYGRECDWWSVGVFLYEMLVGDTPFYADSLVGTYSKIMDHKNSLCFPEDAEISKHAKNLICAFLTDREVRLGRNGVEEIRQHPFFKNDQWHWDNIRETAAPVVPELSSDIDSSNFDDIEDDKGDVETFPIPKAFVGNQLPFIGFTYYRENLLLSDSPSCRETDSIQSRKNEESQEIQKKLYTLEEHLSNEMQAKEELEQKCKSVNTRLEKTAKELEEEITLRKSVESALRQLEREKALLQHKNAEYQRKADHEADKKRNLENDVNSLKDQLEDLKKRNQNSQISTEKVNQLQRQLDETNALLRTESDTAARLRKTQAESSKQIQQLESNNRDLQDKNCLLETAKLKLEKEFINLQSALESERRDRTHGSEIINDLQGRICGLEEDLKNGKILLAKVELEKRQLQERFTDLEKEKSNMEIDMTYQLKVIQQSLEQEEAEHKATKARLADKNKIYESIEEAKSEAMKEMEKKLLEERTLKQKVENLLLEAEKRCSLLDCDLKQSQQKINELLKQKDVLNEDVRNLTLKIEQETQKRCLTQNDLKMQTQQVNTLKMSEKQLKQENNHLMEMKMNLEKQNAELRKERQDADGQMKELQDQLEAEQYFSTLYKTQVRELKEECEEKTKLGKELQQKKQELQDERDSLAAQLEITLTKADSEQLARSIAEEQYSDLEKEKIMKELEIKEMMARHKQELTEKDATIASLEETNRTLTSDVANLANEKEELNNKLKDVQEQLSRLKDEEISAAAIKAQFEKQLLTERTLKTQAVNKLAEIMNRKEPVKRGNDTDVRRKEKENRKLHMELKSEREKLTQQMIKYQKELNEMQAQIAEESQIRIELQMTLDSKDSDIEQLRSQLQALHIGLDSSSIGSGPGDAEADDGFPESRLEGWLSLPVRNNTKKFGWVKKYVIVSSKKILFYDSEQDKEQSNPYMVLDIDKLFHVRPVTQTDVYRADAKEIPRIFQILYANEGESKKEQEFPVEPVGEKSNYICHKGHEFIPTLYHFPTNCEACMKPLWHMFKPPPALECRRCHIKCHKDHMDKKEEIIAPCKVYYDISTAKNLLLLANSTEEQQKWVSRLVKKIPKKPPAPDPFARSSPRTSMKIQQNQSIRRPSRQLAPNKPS

[10] = Oral bioavailability in Sprague-Dawley rat at 5 mL/kg administered through gastric gavage measured after 24 hrs by LC-MS/MS analysis; format: ADME, organism-based; conditions: in vivo
[11] = Inhibition of full-length recombinant human GST-tagged PKG2 expressed in baculovirus expression system by Z'-LYTE assay
[12] = Solubility of the compound at pH 2; format: physicochemical; conditions: buffer
[13] = Half life in Sprague-Dawley rat at 1 mL/kg, iv administered through catheter measured after 24 hrs by LC-MS/MS analysis; format: ADME, organism-based; conditions: in vivo
[14] = Clearance in Beagle dog at 0.5 mL/kg, iv administered through catheter measured after 24 hrs by LC-MS/MS analysis; format: ADME, organism-based, Canis lupus familiaris; conditions: in vivo
[15] = Volume of distribution in Beagle dog at 0.5 mL/kg, iv administered through catheter or 5 mL/kg, administered through gastric gavage measured after 24 hrs by LC-MS/MS analysis; format: ADME, organism-based, Canis lupus familiaris; conditions: in vivo
[16] = Half life in Beagle dog at 0.5 mL/kg, iv administered through catheter or 5 mL/kg, administered through gastric gavage measured after 24 hrs by LC-MS/MS analysis; format: ADME, organism-based, Canis lupus familiaris; conditions: in vivo

In the case of `Cn1cc(-c2cnc3c(-c4csc(C(=O)N[C@@H]5CCCC[C@@H]5N)c4)cnn3c2)cn1` (racemic), the efflux ratio at 5 µM [1] is reported as 54, the solubility [2] is reported as 68 µM (≈ 28.7 µg/mL) and the IC50 [3] is reported as 430 nM. For the same molecule, the IC50 [4] was 14 nM, the IC50 [5] was 42 nM and the IC50 [6] was 33 nM. It also gave an IC50 [7] of 690 nM, an IC50 [8] of 37 nM and an IC50 [9] of 52 nM.

With `Cn1cc(-c2cnc3c(-c4csc(C(=O)NCC(F)(F)F)c4)cnn3c2)cn1` the bioavailability [10] was 53%, the efflux ratio at 5 µM [1] was 1.9 and the IC50 [3] was over 100000 nM. The IC50 [4] was under 10 nM, the IC50 [5] was 130 nM and the IC50 [6] was 430 nM. The IC50 [7] was 810 nM, the IC50 [11] was 480 nM and the IC50 [8] was 6700 nM. For the same molecule, the IC50 [9] was 560 nM and the solubility [12] was under 3 µM.

In the case of `Cc1sc(C(=O)N[C@@H]2[C@H](N)CCCC2(F)F)cc1-c1cnn2cc(Cl)cnc12`, the solubility [2] is reported as 114 µM (≈ 48.6 µg/mL), the half-life [13] is reported as 42 min and the clearance [14] is reported as 27 mL/min/kg. The Vd [15] was 2.3 L/kg, the half-life [16] was 60 min and the IC50 [3] was 2500 nM. It also gave an IC50 [4] of 110 nM, an IC50 [5] of 110 nM and an IC50 [6] of 1300 nM. The IC50 [7] was over 100000 nM, the IC50 [11] was 990 nM and the IC50 [8] was 720 nM. For the same molecule, the IC50 [9] was 1100 nM and the solubility [12] was 206 µM (≈ 87.7 µg/mL).

Molecule `O=C(NCC(F)(F)F)c1cc(-c2cnn3cc(-c4ccc(OCCN5CCCCC5)cc4)cnc23)cs1` has a bioavailability [10] of 46%, an IC50 [3] of 23000 nM and an IC50 [4] of under 10 nM. For the same molecule, the IC50 [5] was 360 nM, the IC50 [6] was 280 nM and the IC50 [7] was 2700 nM. For the same molecule, the IC50 [8] was 1500 nM and the IC50 [9] was 430 nM.
